Key:
Format in all cases: cell-based, Human cytomegalovirus (HCMV)
[1] = test system: TB40E-GFP infection of ARPE19 cells; assay: cAMP/PKA signaling pathway modulation, TB40E-GFP infection; settings: H-89 20 μM, SQ22536 150 μM, FSK 20 μM, 2 h prior to infection, MOI=4.0, 48 hpi
Procedure: (§1) FIGS. 7A-C. HCMV receptor engagement and cAMP/PKA signaling. ARPE19 or OR14I1 knock down cells were pretreated with phosphokinase A (PKA) inhibitor H-89 (20 μM), adenylate cyclase antagonist, SQ22536 (150 μM), or adenylate cyclase activator, forskolin (FSK; 20 μM) for 2 h prior to TB40E-GFP infection (MOI=4.0). Cells were fixed at 48 hpi and images taken.
H-89, SQ22536 and Foskolin were purchased from Sigma-Aldrich Chemicals. Wild type ARPE19 or ARPE19 cells expressing the indicated shRNAs were treated with protein kinase A (PKA) inhibitor H-89 (20 μM), adenylate cyclase antagonist, SQ22536 (150 μM), or adenylate cyclase activator, forskolin (FSK; 20 μM) for 2 h prior to infection with TB40E-GFP (MOI=2.0). After 2 h, the medium was then replaced by the standard medium that also contained the noted small molecules. Images were taken at 2 dpi.
as §1, with “HCMV” for “FIGS. 7A-C. HCMV”, “signaling was also evaluated.” for “signaling.”, “(MOI=4.0).” for “(MOI=4.0). Cells were fixed at 48 hpi and images taken.”

[2] = test system: HCMV infection of ARPE19 epithelial cells; assay: Peptide blocking assay, infection of ARPE19 cells (percent GFP or IE positive cells); settings: short peptides 150 uM preincubated with TB40E, ARPE19, MOI=2.0, 2 dpi
Procedure: (A) Different amounts of peptide 1 were preincubated with TB40E-GFP virus and the mixture applied to ARPE19. Viral DNA levels were quantified by qPCR. (B) The results in (A) are presented as the relative amount of viral DNA relative to the DMSO control. (C) TB40E-GFP virus was preincubated with peptide 1 (100 μg/ml), or DMSO, followed by infection of ARPE19 cells (MOI=2.0). Cells were imaged for GFP expression at 2 dpi (D2) and 7 dpi (D7). (D) TB40E-GFP or BADrUL131-GFP virus, both expressing PC, were preincubated with peptide 1 (100 μg/ml), or DMSO prior to infection of ARPE19 cells (MOI=2.0). Cells were fixed and imaged for GFP at 2 dpi. All data represent the mean of n=3 experiments+/−SD. (E) Culture media supernatants from (C) were harvested on the indicated dpi and assayed for infectious virus by plaque assay. Values indicate the mean percent infected cells of 3 independent experiments±SD. ****p<0.0001.
FIG. 9. […] TB40E-GFP encoding the viral PC or AD169 lacking PC were preincubated with peptide 1 (100 μg/ml) and then infected on ARPE19 epithelial cells or HEL fibroblasts (MOI=2.0). Cells were fixed, permeabilized, stained for DNA, immunostained for anti-immediate early protein (IE) and imaged. […] Values indicate the mean percentage of infected cells of n=3 experiments±SD. **p<0.01; ***p<0.001.
FIG. 11. Each of the short peptides (aa sequences listed in Table 4; 150 uM), Peptide 1 (32.6 μM), or DMSO alone was preincubated with TB40E virus, followed by infection of ARPE19 cell lines (MOI=2.0). Cells were fixed and imaged for GFP and DNA at 2 dpi. Quantitation data indicating the percent GFP positive cells.
Live cell images: Phase and GFP signal images were captured on a Zeiss microscope (Zeiss AxioObserver Z1) at 10× magnification. Fixed cell images: cells were washed with PBS (Life Technologies) and fixed with 4% formalin in PBS (Sigma). DNA was stained with Hoechst 33342 dye (Life Technologies). The fixed cells were imaged using an Image Xpress Micro (IXM, Molecular Devices) at 4× magnification. Images were analyzed with MetaXpress imaging software (Molecular Devices) to determine the total cells per well and the percentage of infected cells (GFP positive) in each well. For IE immunostaining: fixed cells were permeabilized with 0.2% Triton X-100 (Sigma) in PBS. Blocking was performed with 1% BSA (Calbiochem, 2930) in PBS with 0.3M glycine (Sigma). Cells were then incubated in antibody targeting the major IE proteins (IE, EMD Millipore, MAB8131) diluted in 1% BSA in PBS. Cells were then incubated in secondary antibody (Texas Red-conjugated goat anti-mouse IgG2A, Southern Biotech, 1080-07) in PBS containing 1% BSA.
At 2 dpi with HCMV TB40E-GFP virus at the indicated MOI, ARPE19 cells were fixed with 4% formaldehyde and nuclei stained with Hoechst 33342. ARPE19 cells were imaged on an automated IXM scanning microscope. Numbers of infected cells were determined by calculating the percent GFP positive cells using MetaXpress software.
The noted synthetic peptides (100 ug/ml each or as described) were mixed with TB40E-GFP virus (1.2×10^6 PFU) and incubated at 37° C. for 2 h by rocking. The resulting samples were then subjected to the virus binding or infection assay.

[3] = test system: TB40E-GFP infection of ARPE19 cells; assay: shRNA knock down ARPE19 cells infected with TB40E-GFP; settings: for percentage of GFP positive cells (flow cytometry): shRNA knock down ARPE19, TB40E-GFP, 48 hpi; for resistance to TB40E-GFP infection (GFP images): shRNA knock down ARPE19 cells, MOI=0.1, 48 hpi
Procedure: (§2) Each shRNA was cloned into the pLKO.1-blast (Addgene) lentiviral vector followed by viral packing and multiple rounds of amplification in 293T cells. Essentially, the pLKO.1-blast constructs and packaging plasmids were co-transfected into 293T cells with the resulting supernatant harvested at 36 h. Lentiviruses were recovered by ultracentrifugation for 2 h at 28,000 rpm in a Beckman SW28 rotor and resuspensed in DMEM. The lentiviruses were used to transduce the ARPE19 or HEL cells to generate shRNA knock down cells. Populations of stable cells were selected with blasticidin (Invitrogen, 10 μg/ml) for 1 week.
48 h after HCMV TB40E-GFP infection, ARPE19 cells were then treated with cell dissociation buffer (Gibco) and incubated at 37° C. for 10 min. Samples were then washed three times with cold buffer and fixed with cold 2% paraformadehyde in PBS. Cells were pelleted and washed and resuspended in washing buffer (0.1% tween-20 in PBS). Finally, the cells were resuspended in staining buffer (1% BSA, 0.1% sodium azide in HBSS) after pelleting again and immunofluorescent cells analyzed using a MACSQUANT analyzer 10 (Miltenyi Biotec) using blue laser 488 nm and filter 525/50 nm. Results were analyzed using FLOWJO V9.9 image analysis software.
(§3) The role of these proteins in fibroblast cell-type specific tropism in HCMV infection was also evaluated. The sgRNA knock out HEL-cas9 fibroblast pools were infected with HCMV Ad169 virus at MOI=3, and images were taken 48 hpi. […] HCMV infection resistance was also evaluated after knockdown using shRNA, in epithelial cells. The shOR14I1, shDMBT1 or shPDGFRA shRNA knock down ARPE19 cells were infected with TB40E-GFP virus at MOI=0.1, and images were taken 48 hpi. […] Actin is included as a loading control. Resistance to CMV infection was also evaluated in shPDGFRA, shOR14I1 or shDMBT1 knockdown HEL fibroblasts. Fibroblasts were infected with Ad169 at M01=1.0, and images were taken 48 hpi. […] Western blotting was used to confirm the depletion of PDGFRA and OR14I1 in the cells used in the experiments shown in FIG. 2H; the results are shown in FIG. 2I.

[4] = test system: HCMV Ad169 infection of HEL fibroblasts; assay: shRNA knockdown HEL fibroblasts infected with Ad169; settings: MOI=1.0, 48 hpi
Procedure: as §2, §3

[5] = test system: TB40E-GFP entry into ARPE19 cells; assay: Cell-internalized virus assay in shRNA transduced ARPE19 cells; settings: shRNA transduced ARPE19, TB40E-GFP MOI of 2.0, on ice 1 h then 37° C. for 2 h
Procedure: In parallel to the virus binding assay, a subset of plates were then shifted to 37° C. for 2 h to allow virus entry. […] After 10 cold PBS washes, internalized viral DNA levels were quantified by qPCR.
To determine whether human OR14I1 and DMBT1 are required for optimal binding of HCMV TB40E-GFP to cells, shPDGFRA, shOR14I1 and shDMBT1 transduced ARPE19 cells were infected with TB40E-GFP at an MOI of 2.0 on ice for 1 h. The cells were washed ten times with cold PBS, and viral DNA associated with the cells was quantified by qPCR. As shown in FIGS. 3A-B, OR14I1 and DMBT1 are required for optimal binding of HCMV TB40E-GFP to cells. In addition, shPDGFRA, shDMBT1 and shOR14I1 transduced ARPE19 cells were infected with TB40E-GFP at an MOI of 2.0 on ice for 1 h. The cells were then shifted to 37° C. for 2 h to allow the virus entry. […] After 10 cold PBS washes, internalized viral DNA levels were quantified by qPCR.

Compound	ability to inhibit HCMV infection (percent GFP positive cells) [2]	percentage of GFP positive cells (flow cytometry) [3]	resistance to TB40E-GFP infection (GFP images) [3]	resistance to Ad169 infection [4]	internalized viral DNA, viral load as compared to control-infected cells [5]	further results
O=S(=O)(NCCNC/C=C/c1ccc(Br)cc1)c1cccc2cnccc12 [Peptide H-89]	–	–	–	–	–	infectivity of TB40E-GFP in ARPE19 epithelial cells [1]: reduced infectivity significantly
Nc1ncnc2c1ncn2C1CCCO1 (stereo not drawn) [SQ22536, 9-(Tetrahydro-2-furanyl)-9H-purin-6-amine]	–	–	–	–	–	infectivity of TB40E-GFP in ARPE19 epithelial cells [1]: reduced infectivity significantly
EFLLMEFSGIWEL (OR14I1 peptide 9-21aa)	some inhibition	–	–	–	–	–
FLLMEFSGIWELQ (OR14I1 peptide 10-22aa)	best activity	–	–	–	–	–
GCAGAAGCTCCATCTCTTATC (expressed or natural sequence) [shOR14I1, shRNA targeting OR14I1, in pLKO.1-blast lentiviral vector]	–	significant decrease in GFP-expressing cells	resistance was seen	not	about 50%	–
GCCTTTGTACCTCTAGGAATG (expressed or natural sequence) [shPDGFRA, shRNA targeting PDGFRA, in pLKO.1-blast lentiviral vector, reference compound]	–	significant decrease in GFP-expressing cells	resistance was seen	resistant to infection	about 50%	–
GGAGTCAACTGTAGCAGAAGG (expressed or natural sequence) [shDMBT1, shRNA targeting DMBT1, in pLKO.1-blast lentiviral vector]	–	significant decrease in GFP-expressing cells	resistance was seen	not	about 50%	–
LLMEFSGIWELQV (OR14I1 peptide 11-23aa)	best activity	–	–	–	–	–
LMEFSGIWELQVL (OR14I1 peptide) [Peptide 12-24]	best activity	–	–	–	–	–

Source: patent publication US12268901B2, “Targeting cell tropism receptors to inhibit cytomegalovirus infection” (priority 2017, dated 2025)
